Laboratory results taken from ChEMBL document CHEMBL2331339.
The source made the active and inactive calls. The rule behind the calls is not given here.

Legend:
[1] = molecular target: T1, Alpha-hemolysin (Staphylococcus aureus) (UniProt P09616); assay: Inhibition of deoxycholate-induced wild type Staphylococcus aureus alpha-hemolysin oligomerization at 16 ug/ml by SDS-PAGE analysis
T1 sequence (whole entry): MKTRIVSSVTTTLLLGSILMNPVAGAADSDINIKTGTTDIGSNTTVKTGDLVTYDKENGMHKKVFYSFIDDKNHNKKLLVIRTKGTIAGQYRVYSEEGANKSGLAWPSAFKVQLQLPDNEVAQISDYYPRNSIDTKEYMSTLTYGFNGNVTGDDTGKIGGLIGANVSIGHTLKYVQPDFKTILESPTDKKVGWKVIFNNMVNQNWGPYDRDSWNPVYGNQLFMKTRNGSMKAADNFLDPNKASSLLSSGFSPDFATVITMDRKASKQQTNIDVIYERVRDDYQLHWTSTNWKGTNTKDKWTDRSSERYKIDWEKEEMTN

[2] = molecular target: T1, Alpha-hemolysin (Staphylococcus aureus); assay: Binding affinity to wild type Staphylococcus aureus alpha-hemolysin by fluorescence quenching method
Staphylococcus aureus [3] = assay: Antimicrobial activity against Staphylococcus aureus at 1024 ug/ml by broth microdilution method; type: functional, organism-based
Staphylococcus aureus [4] = assay: Inhibition of alpha-hemolysin protein expression in Staphylococcus aureus 8325-4 at 4 to 256 ug/ml by Western blot analysis; type: functional, organism-based

Cc1c(O)c(C)c2c(c1O)C(=O)CC(c1ccc(O)c(O)c1)O2 (centres undefined)
inhibition [1]: Active
Activity [2]: Active
Activity (Staphylococcus aureus [3]): inactive
inhibition (Staphylococcus aureus [4]): inactive
